# Results taken from patent US20260102383A1, “LPAR1 Inhibitors” (AbbVie Inc., priority 2024, published 2026).
# Marks after values point to notes of the source that are not given here.
# How the values were obtained:
# [1] = target: T1, human LPAR1 (Homo sapiens, UniProt Q92633); test: Arrestin assay (Arrestin Reporter EDG2-bla U2OS), inhibition of LPA-stimulated signal; type: cell-based; conditions: TangoEDG2-bla U2OS cells expressing human LPAR1; 0.25 μM LPA; read-out: Arrestin Reporter EDG2-bla U2OS Human IC50
# T1 construct: host or cells: TangoEDG2-bla U2OS cells
# Summary of the method: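 IC50 comes from a variable-slope 4-parameter fit of % inhibition, calculated from the beta-lactamase FRET ratio (emission 460/530 nm, excitation 409 nm, 2 h development at RT). Compounds, 10 μM down to 0.00006 μM in 3-fold steps, were given 1 h before 0.25 μM final LPA for 3 h in TangoEDG2-bla U2OS cells.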
# [2] = tested on: pro-fibrotic and pro-inflammatory genes in bleomycin-induced skin fibrosis; test: Bleomycin-evoked skin fibrosis model, skin gene expression (TaqMan); type: in vivo, C57B6J mice; conditions: for % Inhibition by Concentration vs Bleo (mean ± SEM), Col1a1 gene / % Inhibition by Concentration vs Bleo (mean ± SEM), Col6a3 gene / % Inhibition by Concentration vs Bleo (mean ± SEM), Col8a1 gene / % Inhibition by Concentration vs Bleo (mean ± SEM), Fn1 gene / % Inhibition by Concentration vs Bleo (mean ± SEM), Lpar1 gene / % Inhibition by Concentration vs Bleo (mean ± SEM), Mmp2 gene / % Inhibition by Concentration vs Bleo (mean ± SEM), Serpine1 gene / % Inhibition by Concentration vs Bleo (mean ± SEM), Timp1 gene: skin
# Method: (§1) The activity of Compound 15 was measured using a bleomycin-evoked skin fibrosis model.
# (§2) For the bleomycin model of skin fibrosis, C57B6J mice were purchased at 9 to 11 weeks of age. Upon arriving, mice were group-housed 10 per cage in individually ventilated cages, with a normal 12:12 hour light: dark cycle. Animals were acclimated to the animal facilities for a period of at least 10 days prior to initiation of bleomycin model studies; mouse ears were tagged for animal identification. At the initiation of bleomycin administration, 93M diet gel was also added to the cages of all mice and available ad libitum for the duration of the experiment. For all animals studied, food and water were available ad libitum.
# (§3) The upper back region of the mouse was shaved and two circles (˜1 cm diameter) were drawn onto the skin to identify the location for bleomycin injection. To induce skin fibrosis, mice received subcutaneous injections of bleomycin (10 units/kg) or phosphate-buffered saline (PBS) during Week 1 (D0-D4) and week 2 (D7-D10) at a volume of 100 μL into the two marked injection sites (for a total volume of 200 μL). […] For pharmacological assessment, mice received either vehicle or 1×, 3×, or 10×mg/kg of a dose of Compound 15 orally, twice daily, from Day 10 to 28. On Day 28, animals were humanely euthanized, and plasma and 2 to 8 mm back skin biopsy punches collected. The ALK5 inhibitor, SB-525334 was also included in the study as a positive control. SB-525334 was administered at a dose of 4.5×mg/kg following the same dosing regimen described for Compound 15. All treatments were administered at a volume of 1×mL/kg body weight.
# For tissue gene expression measurement, an 8-mm skin biopsy punch was homogenized in 300 μL RLT buffer containing β-mercaptoethanol (1:100) and using a QIAgen TissueLyser II. RNA was then extracted using the RNeasy Fibrous Mini Kit and purified RNA analyzed for gene expression using TaqMan Kits (Thermofisher) with indicated probes (Table B). Expression data for each sample were normalized to the housekeeping gene (Rplp0) and expressed as fold change relative to the sham treated mice.
# (§4) Data from gene and protein measurements were analyzed using GraphPad Prism 7 (GraphPad Software, San Diego, CA, USA). Group comparisons were conducted by a one-way ANOVA, followed by Dunnett's multiple comparisons test.
# (§5) In the subcutaneous bleomycin-induced skin fibrosis mouse model, Compound 15 was assessed after the skin fibrosis was established during Days 1 through 10. Compound 15 was administered twice daily by oral gavage from Day 10 through Day 28 as described in Table C.
# [3] = tested on: disease-relevant skin proteins in bleomycin-induced skin fibrosis; test: Bleomycin-evoked skin fibrosis model, skin protein levels (ELISA, MSD U-plex); type: in vivo, C57B6J mice
# Method: as §1, §2, §3
# For protein measurement, ½ of an 8-mm biopsy punch was homogenized in 500 μL DI water containing extraction buffer and cell extraction enhancer solution, using a Bead Ruptor 24 with CryoCool (OMNI). ELISA assays were performed on the lysates to measure Fibronectin and Procollagen1a1 and a multiplexed MSD U-plex assay was performed to measure MCP-1 and CXCL1. All kits were run according to the manufacturers' instructions. Skin protein levels were normalized to total protein in the lysate and expressed per milligram of total protein.
# as §4, §5
# [4] = 1x mg/kg PO BID Day 10-28, vs bleomycin/vehicle
# [5] = 3x mg/kg PO BID Day 10-28, vs bleomycin/vehicle
# [6] = 10x mg/kg PO BID Day 10-28, vs bleomycin/vehicle
# [7] = 4.5x mg/kg PO BID Day 10-28, vs bleomycin/vehicle
# T1 sequence (Q92633 whole entry): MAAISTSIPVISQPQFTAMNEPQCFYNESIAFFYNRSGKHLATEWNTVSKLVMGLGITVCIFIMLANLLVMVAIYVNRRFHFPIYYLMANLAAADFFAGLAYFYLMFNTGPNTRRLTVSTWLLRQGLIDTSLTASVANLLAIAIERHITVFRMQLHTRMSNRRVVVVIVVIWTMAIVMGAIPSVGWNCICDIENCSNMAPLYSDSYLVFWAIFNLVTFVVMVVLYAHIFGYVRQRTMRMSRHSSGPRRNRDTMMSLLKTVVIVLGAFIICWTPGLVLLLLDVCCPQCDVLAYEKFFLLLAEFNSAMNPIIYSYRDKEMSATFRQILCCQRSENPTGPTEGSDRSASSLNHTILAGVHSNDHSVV
smiles,measurement,setting,value
"CC(C)c1ccnn1C1(C(=O)Nc2ccc(Cl)cc2OC(F)F)CCN(C[C@H](C(=O)O)C2CCOCC2)CC1 (single isomer, unassigned) [Compound 15]",IC50,[1],47.8 nM
same,key measures of skin inflammation and fibrosis,"[2]; mice, 1×, 3×, and 10×mg/kg",significantly reduced
same,"% Inhibition by Concentration vs Bleo (mean ± SEM), Col1a1 gene",[2]; 1x mg/kg PO BID Day 10-28,58 ± 12 %
same,"% Inhibition by Concentration vs Bleo (mean ± SEM), Col6a3 gene",[2]; 1x mg/kg PO BID Day 10-28,62 ± 24%
same,"% Inhibition by Concentration vs Bleo (mean ± SEM), Col8a1 gene",[2]; 1x mg/kg PO BID Day 10-28,16 ± 23%
same,"% Inhibition by Concentration vs Bleo (mean ± SEM), Fn1 gene",[2]; 1x mg/kg PO BID Day 10-28,31 ± 20%
same,"% Inhibition by Concentration vs Bleo (mean ± SEM), Lpar1 gene",[2]; 1x mg/kg PO BID Day 10-28,54 ± 24%
same,"% Inhibition by Concentration vs Bleo (mean ± SEM), Mmp2 gene",[2]; 1x mg/kg PO BID Day 10-28,39 ± 26%
same,"% Inhibition by Concentration vs Bleo (mean ± SEM), Serpine1 gene",[2]; 1x mg/kg PO BID Day 10-28,28 ± 31%
same,"% Inhibition by Concentration vs Bleo (mean ± SEM), Timp1 gene",[2]; 1x mg/kg PO BID Day 10-28,34 ± 21%
same,"% Inhibition by Concentration vs Bleo (mean ± SEM), Col1a1 gene",[2]; 3x mg/kg PO BID Day 10-28,77 ± 8 %
same,"% Inhibition by Concentration vs Bleo (mean ± SEM), Col6a3 gene",[2]; 3x mg/kg PO BID Day 10-28,108 ± 9 %
same,"% Inhibition by Concentration vs Bleo (mean ± SEM), Col8a1 gene",[2]; 3x mg/kg PO BID Day 10-28,43 ± 14%
same,"% Inhibition by Concentration vs Bleo (mean ± SEM), Fn1 gene",[2]; 3x mg/kg PO BID Day 10-28,76 ± 5 %
same,"% Inhibition by Concentration vs Bleo (mean ± SEM), Lpar1 gene",[2]; 3x mg/kg PO BID Day 10-28,97 ± 9 %
same,"% Inhibition by Concentration vs Bleo (mean ± SEM), Mmp2 gene",[2]; 3x mg/kg PO BID Day 10-28,81 ± 15 %
same,"% Inhibition by Concentration vs Bleo (mean ± SEM), Serpine1 gene",[2]; 3x mg/kg PO BID Day 10-28,88 ± 5 %
same,"% Inhibition by Concentration vs Bleo (mean ± SEM), Timp1 gene",[2]; 3x mg/kg PO BID Day 10-28,81 ± 7 %
same,"% Inhibition by Concentration vs Bleo (mean ± SEM), Col1a1 gene",[2]; 10x mg/kg PO BID Day 10-28,88 ± 6 %
same,"% Inhibition by Concentration vs Bleo (mean ± SEM), Col6a3 gene",[2]; 10x mg/kg PO BID Day 10-28,117 ± 8 %
same,"% Inhibition by Concentration vs Bleo (mean ± SEM), Col8a1 gene",[2]; 10x mg/kg PO BID Day 10-28,55 ± 11 %
same,"% Inhibition by Concentration vs Bleo (mean ± SEM), Fn1 gene",[2]; 10x mg/kg PO BID Day 10-28,75 ± 4 %
same,"% Inhibition by Concentration vs Bleo (mean ± SEM), Lpar1 gene",[2]; 10x mg/kg PO BID Day 10-28,95 ± 8 %
same,"% Inhibition by Concentration vs Bleo (mean ± SEM), Mmp2 gene",[2]; 10x mg/kg PO BID Day 10-28,55 ± 12%
same,"% Inhibition by Concentration vs Bleo (mean ± SEM), Serpine1 gene",[2]; 10x mg/kg PO BID Day 10-28,75 ± 9 %
same,"% Inhibition by Concentration vs Bleo (mean ± SEM), Timp1 gene",[2]; 10x mg/kg PO BID Day 10-28,84 ± 5 %
same,"% Inhibition by Drug Treatment, CXCL1 protein",[3]; [4],56** %
same,"% Inhibition by Drug Treatment, Fibronectin protein",[3]; [4],29%
same,"% Inhibition by Drug Treatment, MCP-1 protein",[3]; [4],50** %
same,"% Inhibition by Drug Treatment, Procollagen1a1 protein",[3]; [4],67*** %
same,"% Inhibition by Drug Treatment, CXCL1 protein",[3]; [5],71*** %
same,"% Inhibition by Drug Treatment, Fibronectin protein",[3]; [5],46*** %
same,"% Inhibition by Drug Treatment, MCP-1 protein",[3]; [5],59** %
same,"% Inhibition by Drug Treatment, Procollagen1a1 protein",[3]; [5],74*** %
same,"% Inhibition by Drug Treatment, CXCL1 protein",[3]; [6],76*** %
same,"% Inhibition by Drug Treatment, Fibronectin protein",[3]; [6],46*** %
same,"% Inhibition by Drug Treatment, MCP-1 protein",[3]; [6],73*** %
same,"% Inhibition by Drug Treatment, Procollagen1a1 protein",[3]; [6],77*** %
"Cc1cccc(-c2[nH]c(C(C)(C)C)nc2-c2ccc3nccnc3c2)n1 [SB-525334, reference compound]","% Inhibition by Drug Treatment, CXCL1 protein",[3]; [7],49* %
same,"% Inhibition by Drug Treatment, Fibronectin protein",[3]; [7],82*** %
same,"% Inhibition by Drug Treatment, Procollagen1a1 protein",[3]; [7],69*** %
same,"% Inhibition by Drug Treatment, MCP-1 protein","[3]; PO BID Day 10-28, vs bleomycin/vehicle",17%
